Here are results for 1 compound from patent publication US20080139638A1, “METHOD OF INCREASING GROWTH HORMONE SECRETION” (priority 2006, published 2008).

Entries after “also recorded” stand apart in the source; their conditions may differ. Where two headings read alike, the source gives them in different places.

Assay [1] has as its system growth hormone. The settings on record: no exercise, cited from earlier work.
Assay [2] has as its system growth hormone secretion. In words: Serum growth hormone (ELISA/EIA) after oral melatonin supplementation 60 min before a single bout of resistance exercise (leg press). The class given is in vivo, human (healthy males). The source says:
Thirty, healthy males who had partaken in regular resistance training for at least one year prior to the study were selected [n=30(22.72±3.28 years, 180.94±6.24 cm in height, and 82.08±9.18 kg in weight)] served as participants in the study. All of the participants passed a mandatory medical screening and were considered either as low or moderate risk or with no contradictions to exercise as outline by the American College of Sports Medicine (ACSM). Furthermore, the participants had not consumed any nutritional supplements, with the exclusion of vitamins, during a two month period prior the experiment.
Participants were matched by relative strength level (strength/body weight) and then randomly assigned to one of three different protocols. The supplement protocol consisted of a double-blind with groups receiving either 0.5 mg or 5.0 if melatonin (N-Acetyl-5-methoxytryptamine) or 1.0 mg of dextrose as a placebo. Participants were allowed a light breakfast at 8:00 am, wherein they were asked to record the consumed items, and then were required to fast until 2 pm. Seventy-five minutes prior to each exercise session, (12:30 pm), an intravenous cannula was inserted into a foreman vein. At 60 minutes prior to the exercise session, a baseline blood sample was taken and the participant orally received a supplement of placebo according top that outlined above. During the 60 minutes prior to exercise, the participants were required to rest in a supine position and blood samples were taken every 15 minutes up to the initiation of the resistance exercise. The leg press exercise consisted of 7 sets of 7 slow repetitions at 85% of the weight of the respective participant's one repetition maximum. Each set was preformed over the course of 30 seconds followed by 150 seconds of rest. The entire resistance exercise session was 21 minutes in duration.
Venous blood samples were obtained into 10 ml vacutainer tubes via a 20 gauge intravenous catheter inserted into a foreman vein after the subcutaneous injection of a topical anesthetic (2% Xylocaine). Following the five hour fast, blood samples were obtained at 15-minute intervals commencing 60 minutes prior to the resistance exercise session and then at 15-minute intervals for 120 minutes following the resistance exercise session. Blood samples were allowed to stand for 10 minutes at room temperature and then centrifuged at 2,400 rpm for 10 minutes. The serum was then separated and stored at (−)20° C. until analysis.
Using enzyme-linked immunosorbent assays (ELISA), and enzyme-immunosorbent assays (EIA), serum samples were assayed for growth hormone (Diagnostics Systems Laboratories, Webster, Tex.) using a Wallac Victor-1420 microplate reader from Perkin-Elmer Life Sciences. Boston, Mass. at either 450 or 405 nm respectively. An ultra-sensitive assay with a lower detection limit of 0.66 pg/ml was used to determine the levels of growth hormone without any detectable interference of circulation glycoproteins, GH-dependent peptide hormones, or growth hormone binding protein.
Statistical analyses were performed using factorial analysis of variance (ANOVA) with repeated measures for each criterion value. Pairwise comparisons were used to differentiate significant differences among the three groups. All statistical procedures were performed using SPSS 11.0 software and a probability level of <0.05 was adopted throughout.
Short half-life hormones which are highly sensitive to diurnal variations, such as growth hormone, display great variability in the baseline values as was observed. As such, peak serum hormone responses before and after resistance exercise were subtracted from the baseline values of each participant in order to determine the increase in the growth hormone resulting from the treatments.

Assay [3] deals with growth hormone release. To be noted: cited from earlier work.
Assay [4] relates to growth hormone. To be noted: 5.0 mg oral 60 minutes prior to bicycle exercise at 70% VO2max; cited from earlier work.

On to `COc1ccc2[nH]cc(CCNC(C)=O)c2c1` [melatonin, N-Acetyl-5-methoxytryptamine], for which the “plasma growth hormone concentrations” value in assay [1] (0.5 mg oral) and in assay [1] (5.0 mg oral) was “significant increase” throughout. For the same compound, the “time of peak plasma growth hormone values” in assay [1] (0.5 mg oral) and in assay [1] (5.0 mg oral) was 60 min in each case. The “fold increase in serum growth hormone relative to placebo” value in assay [2] (0.5 mg melatonin oral 60 min prior to exercise, post-exercise period) is reported as “approximately 3.16 fold”; in assay [2] (5.0 mg melatonin oral, pre-exercise period, peak standardized to baseline), approximately 2.35 fold. Further, the “serum growth hormone levels compared to placebo (in words)” value in assay [2] (0.5 mg melatonin oral, post-workout period) is reported as “statistically significant (p=0.045) elevations”; in assay [2] (0.5 mg melatonin oral, pre-exercise period), “no statistical difference; also recorded: no significant increase”; in assay [2] (5.0 mg melatonin oral, post-workout period) it was “statistically significant (p=0.045) elevations”; in assay [2] (5.0 mg melatonin oral, pre-exercise period), “increased relative to placebo”. Also, the “increase in growth hormone of the 0.5 mg group compared to the 5.0 mg group (in words)” value in assay [2] (0.5 mg vs 5.0 mg melatonin oral, post-exercise) was “significantly greater increase”. For the same compound, the “effect on basal growth hormone levels” value in assay [3] (0.4 mg/kg intravenous) and in assay [3] (1 g oral) was “have been shown to have an effect” throughout. For the same compound, in assay [3] (small doses, less than 2 mg, oral), the “effect on the 24-hr profile of growth hormone concentration” value is recorded as “have not be shown to affect”. Besides, the “growth hormone compared to placebo, area under the curve” value in assay [4] is reported as “significant increases”. Also, the “time of growth hormone peak following exercise” value in assay [4] is 30 min.
